Test results: article PMC8307506, “Identification of Dihydromyricetin and Metabolites in Serum and Brain Associated with Acute Anti-Ethanol Intoxicating Effects in Mice” (International Journal of Molecular Sciences, 2021)
Like-named read-outs stand apart in the source and are kept apart here.

Assay: Serum pharmacokinetics of DHM after PO and IP administration
Assay type: in vivo, mice
Details: for Tmax / half-life / Cmax / AUC(0-t): C57BL/6J, mouse, serum; for half-life: read-out: Serum T1/2 (converted); for IP AUC0→24 relative to PO AUC0→24: DHM 50 mg/kg; for Cmax / AUC(0-t): 50 mg/kg; for AUC(0-t): read-out: Serum AUC0→24
Protocol: Eight-week-old male and female C57BL/6J mice (Jackson’s Laboratories, Bar Harbor, ME, USA) were housed 4 mice to a cage (separated by sex) and maintained on 12-h light, 12-h dark cycles (lights on at 0700 h) in the animal facility at the Department of Animal Sciences, Rutgers University. Following 1-week acclimation, animals were given ad libitum access to water and a polyphenol-free diet (PFD; 3.82 kcal/g, 10% fat, 20% protein, 70% carbohydrate; D12450H; Research Diets, Inc., New Brunswick, NJ, USA) for at least 10 days. For PK studies, after an overnight fast, mice were administered 50 mg/kg DHM (dissolved in 0.9% saline with 10% DMSO) by either IP injection or oral gavage. Oral gavage was performed using single-use, sterile plastic feeding tubes for mice (20 ga × 30 mm; cat# FTP-20-30, Instech Laboratories, (Plymouth Meeting, PA, USA). Mice were deeply anesthetized with 5% isoflurane mixed with oxygen, and blood was collected by cardiac puncture. Following cardiac puncture, animals were exsanguinated and transcardial perfusion with 0.9% saline was performed to ensure blood removal from the brain tissue. Blood and brain samples were collected from a total of 85 mice at 0.25, 0.75, 1.5, 3, 6, 12, 24 h (3–4 mice for each sex and timepoint). Tissues were immediately homogenized with 0.2% formic acid at 1:2 (w/v), and frozen at −80 °C until analysis. Blood was centrifuged at 3000× g for 10 min at 4 °C to isolate serum. For efficacy studies, mice (n = 8/sex) were fasted at 5 h prior to Ethanol gavage 5 g/kg (37% Ethanol in water). DHM 50 mg/kg IP (dissolved in 0.9% saline with 10% DMSO) was administered at 0, 15, 45, 90 and 180 min prior to Ethanol oral gavage. Each mouse was tested at each time point 7 days apart over 6-week period. At the time of Ethanol gavage, mice were placed in oversized conical holders (L: 152 mm X W: 37 mm) and observed for ability to return upright upon being placed in a supine position. Duration of LORR was determined by ability to return upright 3 times within 30 s. To determine whether ethanol-induced tolerance developed, one week (Week 1; Baseline) prior to the 6-week repeated DHM dosing study all mice were oral dose with ethanol (5 g/kg) without any IP injection and LORR was measured. Mice were then re-tested in a similar fashion with oral ethanol 1 week after the DHM 6-week period (Week 8; Post). […] All animal studies were approved by the Institutional Animal Care and Use Committee of Rutgers University (Bello; PROTO999900014, OLAW #A3262-01, 15 March 2017) and complied with NIH Guide for the Care and Use of Laboratory Animals.
All serum samples were stored at −80 °C and conditioned to room temperature prior to analysis. An aliquot of 100 µL of serum, 20 µL 4M HCl, and 50 µL of internal standard (IS) solution (417 ng/mL isoquercetin in EtOAc) were combined in an Eppendorf tube. An aliquot of 500 µL of EtOAc was added and samples were vortexed for 30 s. Samples were then centrifuged at 3000× g for 2 min and the supernatant transferred to a glass vial. Samples were extracted 2 more times with EtOAc and the supernatant added to the corresponding vial containing 10 µL of 2% ascorbic acid in methanol (MeOH). Samples were then dried under vacuum, reconstituted with 100 µL of 45% MeOH in water with 0.1% formic acid (FA), centrifuged at 16,000× g for 10 min and transferred to an HPLC vial for analysis.
An Agilent 1290 Infinity II UPLC system interfaced with an Agilent 6470 Triple Quadrupole Mass Spectrometer with an electrospray ionization source (Agilent Technology, Palo Alto, CA, USA) was used for sample analysis. An Waters Acquity UPLC BEH C8 column (2.1 × 150 mm, 1.7 μm) (Milford, MA, USA) column with a VanGuard Acquity C8 guard column (2.1 × 5 mm, 1.7 μm) (Milford, MA, USA) was used for chromatographic separation. The binary mobile phases consisted of water with 0.1% FA (phase A) and acetonitrile (ACN) with 0.1% formic acid (phase B). The flow rate was set at 0.450 mL/min. […]

[1] = female, ip, female mice, DHM 50 mg/kg IP
[2] = female, ip, female mice, DHM 50 mg/kg IP, mean ± SEM
[3] = female, po, female mice, DHM 50 mg/kg PO
[4] = female, po, female mice, DHM 50 mg/kg PO, mean ± SEM
[5] = male, ip, male mice, DHM 50 mg/kg IP
[6] = male, ip, male mice, DHM 50 mg/kg IP, mean ± SEM
[7] = male, po, male mice, DHM 50 mg/kg PO
[8] = male, po, male mice, DHM 50 mg/kg PO, mean ± SEM

- Tmax (female mice, DHM 50 mg/kg IP): 15 min
- half-life (female mice, DHM 50 mg/kg IP): 45.6 min
- Tmax (female mice, DHM 50 mg/kg PO): 15 min
- half-life (female mice, DHM 50 mg/kg PO): 110 min
- Tmax (male mice, DHM 50 mg/kg IP): 15 min
- half-life (male mice, DHM 50 mg/kg IP): 95.4 min
- Tmax (male mice, DHM 50 mg/kg PO): 15 min
- half-life (male mice, DHM 50 mg/kg PO): 115 min
- PO exposure levels in male mice relative to female mice (DHM 50 mg/kg PO): 3.5 times
- IP AUC0→24 relative to PO AUC0→24 (female mice): 23.8 fold
- Serum AUC0→24 (female mice, DHM 50 mg/kg PO): 0.7 µM·h
- IP AUC0→24 relative to PO AUC0→24 (female mice, listed as dihydromyricetin): 7.2 fold
- Cmax [1]: 23.8 µM
- Cmax [2]: 23.8 µM
- AUC(0-t) [2]: 17.4 µM·h
- AUC(0-t) [1]: 17.3 µM·h
- Cmax [3]: 0.62 µM
- Cmax [4]: 0.623 ± 0.159 µM
- AUC(0-t) [4]: 0.728 ± 0.461 µM·h
- AUC(0-t) [3]: 0.728 µM·h
- IP AUC0→24 relative to PO AUC0→24 (male mice): 7.2 fold
- Serum AUC0→24 (male mice, DHM 50 mg/kg PO): 2.5 µM·h
- IP AUC0→24 relative to PO AUC0→24 (male mice, listed as dihydromyricetin): 23.8 fold
- Cmax [5]: 38.3 µM
- Cmax [6]: 38.3 µM
- AUC(0-t) [6]: 18.1 µM·h
- AUC(0-t) [5]: 18.1 µM·h
- Cmax [7]: 1.9 µM
- Cmax [8]: 1.89 ± 0.59 µM
- AUC(0-t) [8]: 2.51 ± 0.988 µM·h
- AUC(0-t) [7]: 2.51 µM·h
Structure (SMILES): O=C1c2c(O)cc(O)cc2O[C@H](c2cc(O)c(O)c(O)c2)[C@H]1O [DHM, Dihydromyricetin]
